Measured values from PubChem BioAssay (NCI).
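96-well plates; 48 h exposure; 5 concentrations. Endpoints by linear interpolation between flanking doses. Not reached: highest tested concentration assigned. TGI marks complete inhibition of growth.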

Experiments:
Assay in all cases: NCI anticancer screen, dose series, 48 h
BT-549 breast = test system: BT-549 breast
DU-145 prostate = test system: DU-145 prostate
HCC-2998 colon = test system: HCC-2998 colon
HOP-62 NSCLC = test system: HOP-62 NSCLC
LOX IMVI melanoma = test system: LOX IMVI melanoma
MCF7 breast = test system: MCF7 breast
MDA-MB-231 breast = test system: MDA-MB-231 breast
MOLT-4 leukemia = test system: MOLT-4 leukemia
NCI-H460 lung = test system: NCI-H460 lung
OVCAR-8 ovarian = test system: OVCAR-8 ovarian
SF-295 CNS = test system: SF-295 CNS
SN12C renal = test system: SN12C renal
SR leukemia = test system: SR leukemia
UACC-257 melanoma = test system: UACC-257 melanoma
UACC-62 melanoma = test system: UACC-62 melanoma

## CC(=O)NC1C(O)C(O)C(CO)OC1n1ncc(=O)[nH]c1=O (stereo not given)
BT-549 breast
  TGI: > 100 µM
DU-145 prostate
  TGI: > 100 µM
HCC-2998 colon
  TGI: > 100 µM
HOP-62 NSCLC
  TGI: > 100 µM
LOX IMVI melanoma
  TGI: > 100 µM
MCF7 breast
  TGI: > 100 µM
MDA-MB-231 breast
  TGI: > 100 µM
MOLT-4 leukemia
  TGI: > 100 µM
NCI-H460 lung
  TGI: > 100 µM
OVCAR-8 ovarian
  TGI: > 100 µM
SF-295 CNS
  TGI: > 100 µM
SN12C renal
  TGI: > 100 µM
SR leukemia
  TGI: > 100 µM
UACC-257 melanoma
  TGI: > 100 µM
UACC-62 melanoma
  TGI: > 100 µM

## CC1=NN(c2nc(N)nc(CSCc3nc(N)nc(N(C)C)n3)n2)C(C)(C)C1
BT-549 breast
  TGI: > 100 µM
DU-145 prostate
  TGI: > 100 µM
HCC-2998 colon
  TGI: > 100 µM
HOP-62 NSCLC
  TGI: > 100 µM
LOX IMVI melanoma
  TGI: > 100 µM
MCF7 breast
  TGI: > 100 µM
MDA-MB-231 breast
  TGI: > 100 µM
MOLT-4 leukemia
  TGI: > 100 µM
NCI-H460 lung
  TGI: > 100 µM
OVCAR-8 ovarian
  TGI: > 100 µM
SF-295 CNS
  TGI: > 100 µM
SN12C renal
  TGI: > 100 µM
SR leukemia
  TGI: > 100 µM
UACC-257 melanoma
  TGI: > 100 µM
UACC-62 melanoma
  TGI: > 100 µM

## O=c1cc(CBr)c2ccc(O)cc2o1
BT-549 breast
  TGI: 77 µM
DU-145 prostate
  TGI: > 100 µM
HCC-2998 colon
  TGI: > 100 µM
HOP-62 NSCLC
  TGI: 50.3 µM
LOX IMVI melanoma
  TGI: > 100 µM
MCF7 breast
  TGI: > 100 µM
MDA-MB-231 breast
  TGI: > 100 µM
MOLT-4 leukemia
  TGI: > 100 µM
NCI-H460 lung
  TGI: > 100 µM
OVCAR-8 ovarian
  TGI: > 100 µM
SF-295 CNS
  TGI: > 100 µM
SN12C renal
  TGI: > 100 µM
SR leukemia
  TGI: > 100 µM
UACC-257 melanoma
  TGI: > 100 µM
UACC-62 melanoma
  TGI: > 100 µM

## O=c1c2cccnc2cc(-c2ccccc2)n1CCO
BT-549 breast
  TGI: > 100 µM
DU-145 prostate
  TGI: > 100 µM
HCC-2998 colon
  TGI: > 100 µM
HOP-62 NSCLC
  TGI: > 100 µM
LOX IMVI melanoma
  TGI: > 100 µM
MCF7 breast
  TGI: > 100 µM
MDA-MB-231 breast
  TGI: > 100 µM
MOLT-4 leukemia
  TGI: > 100 µM
NCI-H460 lung
  TGI: > 100 µM
OVCAR-8 ovarian
  TGI: > 100 µM
SF-295 CNS
  TGI: > 100 µM
SN12C renal
  TGI: > 100 µM
SR leukemia
  TGI: > 100 µM
UACC-257 melanoma
  TGI: > 100 µM
UACC-62 melanoma
  TGI: > 100 µM

## CCOC(=O)/C(C#N)=C1\c2c([nH]c(=S)[nH]c2=O)Oc2ccc3ccccc3c21
BT-549 breast
  TGI: > 100 µM
DU-145 prostate
  TGI: > 100 µM
HCC-2998 colon
  TGI: > 100 µM
HOP-62 NSCLC
  TGI: > 100 µM
LOX IMVI melanoma
  TGI: > 100 µM
MCF7 breast
  TGI: > 100 µM
MDA-MB-231 breast
  TGI: > 100 µM
MOLT-4 leukemia
  TGI: 47.3 µM
NCI-H460 lung
  TGI: > 100 µM
OVCAR-8 ovarian
  TGI: > 100 µM
SF-295 CNS
  TGI: > 100 µM
SN12C renal
  TGI: > 100 µM
SR leukemia
  TGI: > 100 µM
UACC-257 melanoma
  TGI: > 100 µM
UACC-62 melanoma
  TGI: > 100 µM

## COc1cccc2c(Nc3ccc(S(=O)(=O)NC(C)=O)cc3)c3ccc([N+](=O)[O-])cc3nc12
BT-549 breast
  TGI: > 56 µM
DU-145 prostate
  TGI: > 100 µM
HCC-2998 colon
  TGI: > 100 µM
HOP-62 NSCLC
  TGI: > 100 µM
LOX IMVI melanoma
  TGI: > 100 µM
MCF7 breast
  TGI: > 100 µM
MDA-MB-231 breast
  TGI: 56.6 µM
MOLT-4 leukemia
  TGI: 80.5 µM
NCI-H460 lung
  TGI: > 100 µM
OVCAR-8 ovarian
  TGI: > 100 µM
SF-295 CNS
  TGI: > 100 µM
SN12C renal
  TGI: > 100 µM
SR leukemia
  TGI: 34.3 µM
UACC-257 melanoma
  TGI: > 54.9 µM
UACC-62 melanoma
  TGI: > 58.3 µM

## CC1(C)CCCCCCC2OC2CCCCCC(C)(C)C1=O (stereo not given)
BT-549 breast
  TGI: > 76.6 µM
DU-145 prostate
  TGI: > 100 µM
HCC-2998 colon
  TGI: > 70.8 µM
HOP-62 NSCLC
  TGI: > 100 µM
LOX IMVI melanoma
  TGI: > 100 µM
MCF7 breast
  TGI: > 73.3 µM
MDA-MB-231 breast
  TGI: > 100 µM
MOLT-4 leukemia
  TGI: 61.2 µM
NCI-H460 lung
  TGI: > 100 µM
OVCAR-8 ovarian
  TGI: > 100 µM
SF-295 CNS
  TGI: > 67.3 µM
SN12C renal
  TGI: > 64 µM
SR leukemia
  TGI: > 70 µM
UACC-257 melanoma
  TGI: > 93.5 µM
UACC-62 melanoma
  TGI: > 100 µM

## CCCCCC(CO)C(O)(C(F)(F)F)C(F)(F)F (stereo not given)
BT-549 breast
  TGI: > 10 µM
DU-145 prostate
  TGI: > 10 µM
HCC-2998 colon
  TGI: > 10 µM
HOP-62 NSCLC
  TGI: > 10 µM
LOX IMVI melanoma
  TGI: > 10 µM
MCF7 breast
  TGI: > 10 µM
MDA-MB-231 breast
  TGI: > 10 µM
MOLT-4 leukemia
  TGI: > 10 µM
NCI-H460 lung
  TGI: > 10 µM
OVCAR-8 ovarian
  TGI: > 10 µM
SF-295 CNS
  TGI: > 10 µM
SN12C renal
  TGI: > 10 µM
SR leukemia
  TGI: > 10 µM
UACC-257 melanoma
  TGI: > 10 µM
UACC-62 melanoma
  TGI: > 10 µM

## COc1ccc(-c2c(CN3CCOCC3)sc3nc4ccccc4n23)cc1
BT-549 breast
  TGI: > 100 µM
DU-145 prostate
  TGI: > 100 µM
HCC-2998 colon
  TGI: 99.2 µM
HOP-62 NSCLC
  TGI: > 100 µM
LOX IMVI melanoma
  TGI: > 100 µM
MCF7 breast
  TGI: > 100 µM
MDA-MB-231 breast
  TGI: > 68.9 µM
MOLT-4 leukemia
  TGI: > 100 µM
NCI-H460 lung
  TGI: 53.5 µM
OVCAR-8 ovarian
  TGI: > 100 µM
SF-295 CNS
  TGI: > 100 µM
SN12C renal
  TGI: > 100 µM
SR leukemia
  TGI: 15.1 µM
UACC-257 melanoma
  TGI: > 100 µM
UACC-62 melanoma
  TGI: > 100 µM

## NC(N)=N/N=C/c1c(-c2ccc([N+](=O)[O-])cc2)nc2n1CCS2
BT-549 breast
  TGI: 34.2 µM
DU-145 prostate
  TGI: 28.1 µM
HCC-2998 colon
  TGI: 19.7 µM
HOP-62 NSCLC
  TGI: 61.5 µM
LOX IMVI melanoma
  TGI: 35 µM
MCF7 breast
  TGI: 30.3 µM
MDA-MB-231 breast
  TGI: 16 µM
MOLT-4 leukemia
  TGI: > 33 µM
NCI-H460 lung
  TGI: 32.3 µM
OVCAR-8 ovarian
  TGI: 29.2 µM
SF-295 CNS
  TGI: 36.7 µM
SN12C renal
  TGI: 19.2 µM
SR leukemia
  TGI: 5.71 µM
UACC-257 melanoma
  TGI: 35.6 µM
UACC-62 melanoma
  TGI: 35.3 µM

## N#Cc1c(Cl)c2ccccc2n2c1nc1ccccc12
BT-549 breast
  TGI: > 100 µM
DU-145 prostate
  TGI: 80.4 µM
HCC-2998 colon
  TGI: 40.1 µM
HOP-62 NSCLC
  TGI: > 100 µM
LOX IMVI melanoma
  TGI: 34.6 µM
MCF7 breast
  TGI: > 100 µM
MDA-MB-231 breast
  TGI: 74 µM
MOLT-4 leukemia
  TGI: 75.9 µM
NCI-H460 lung
  TGI: > 100 µM
OVCAR-8 ovarian
  TGI: 48.3 µM
SF-295 CNS
  TGI: > 100 µM
SN12C renal
  TGI: 67 µM
SR leukemia
  TGI: 77.7 µM
UACC-257 melanoma
  TGI: > 100 µM
UACC-62 melanoma
  TGI: > 100 µM

## O=C(CCc1ccc(O)cc1)NCCc1cccc(OCc2ccccc2)c1
BT-549 breast
  TGI: 45.6 µM
DU-145 prostate
  TGI: > 100 µM
HCC-2998 colon
  TGI: 41.3 µM
HOP-62 NSCLC
  TGI: > 100 µM
LOX IMVI melanoma
  TGI: 30.4 µM
MCF7 breast
  TGI: 86.6 µM
MDA-MB-231 breast
  TGI: > 100 µM
MOLT-4 leukemia
  TGI: 48.4 µM
NCI-H460 lung
  TGI: 66.6 µM
OVCAR-8 ovarian
  TGI: > 100 µM
SF-295 CNS
  TGI: > 100 µM
SN12C renal
  TGI: > 100 µM
SR leukemia
  TGI: 36.5 µM
UACC-257 melanoma
  TGI: 39.3 µM
UACC-62 melanoma
  TGI: 34 µM

## COc1ccc(/C=C2\CCCCCC2=O)cc1
BT-549 breast
  TGI: > 100 µM
DU-145 prostate
  TGI: > 100 µM
HCC-2998 colon
  TGI: > 100 µM
HOP-62 NSCLC
  TGI: > 100 µM
LOX IMVI melanoma
  TGI: > 100 µM
MCF7 breast
  TGI: > 100 µM
MDA-MB-231 breast
  TGI: > 100 µM
MOLT-4 leukemia
  TGI: > 100 µM
NCI-H460 lung
  TGI: > 100 µM
OVCAR-8 ovarian
  TGI: > 100 µM
SF-295 CNS
  TGI: > 100 µM
SN12C renal
  TGI: > 100 µM
SR leukemia
  TGI: > 100 µM
UACC-257 melanoma
  TGI: > 100 µM
UACC-62 melanoma
  TGI: > 100 µM
